Source: ChEMBL document CHEMBL1201862, “PubChem BioAssay data set” (2004)
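Exposure lasted 48 hours, with cells grown in 96-well plates and compounds tested at five concentrations. Here, GI50 denotes the concentration required for 50% inhibition of growth.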 Calls of active or inactive are those of the source. No stated cut-off is given here; in the data, active = GI50 up to about 1.1 µM and inactive = higher.

Legend:
Test in all cases: NCI tumour cell line growth inhibition, 48 h
DMS-114 = tested on: DMS-114
HT-29 = tested on: HT-29
CCRF-CEM = tested on: CCRF-CEM
EKVX = tested on: EKVX
CAKI-1 = tested on: CAKI-1
NCI-H522 = tested on: NCI-H522
HOP-92 = tested on: HOP-92
RXF 393 = tested on: RXF 393
SN12C = tested on: SN12C
SK-MEL-5 = tested on: SK-MEL-5
Malme-3M = tested on: Malme-3M
HOP-62 = tested on: HOP-62
A498 = tested on: A498
SNB-19 = tested on: SNB-19
NCI-H226 = tested on: NCI-H226
786-0 = tested on: 786-0
SK-MEL-28 = tested on: SK-MEL-28
SK-OV-3 = tested on: SK-OV-3
OVCAR-5 = tested on: OVCAR-5
KM-20L2 = tested on: KM-20L2
IGROV-1 = tested on: IGROV-1
XF498 = tested on: XF498
M14 = tested on: M14
NCI-H460 = tested on: NCI-H460
RXF 631 = tested on: RXF 631
COLO 205 = tested on: COLO 205
SF-539 = tested on: SF-539
RPMI-8226 = tested on: RPMI-8226
NCI-H23 = tested on: NCI-H23
SNB-75 = tested on: SNB-75
LXFL 529 = tested on: LXFL 529
ACHN = tested on: ACHN
HCC 2998 = tested on: HCC 2998
M19-MEL = tested on: M19-MEL
HCT-116 = tested on: HCT-116
DMS-273 = tested on: DMS-273
TK-10 = tested on: TK-10
KM12 = tested on: KM12
A549 = tested on: A549
SW-620 = tested on: SW-620
SF-268 = tested on: SF-268
OVCAR-8 = tested on: OVCAR-8
UACC-62 = tested on: UACC-62
HL-60 = tested on: HL-60
K562 = tested on: K562
DLD-1 = tested on: DLD-1
SNB-78 = tested on: SNB-78
SF-295 = tested on: SF-295
U-251 = tested on: U-251
UACC-257 = tested on: UACC-257
OVCAR-3 = tested on: OVCAR-3
UO-31 = tested on: UO-31
LOX IMVI = tested on: LOX IMVI
HOP-18 = tested on: HOP-18
OVCAR-4 = tested on: OVCAR-4

Measured: GI50

CCOC(=O)c1cc2c3c(c(O)c(OC)c2s1)N(C(=O)c1cc2c4c(c(O)c(OC)c2s1)N(C(C)=O)CC4)CC3
inactive: DMS-114 > 100 µM | HT-29 > 100 µM | CCRF-CEM > 100 µM | EKVX > 100 µM | CAKI-1 > 100 µM | NCI-H522 > 100 µM | HOP-92 29 µM | RXF 393 54.1 µM | SN12C > 100 µM | SK-MEL-5 85.1 µM | Malme-3M 77.8 µM | HOP-62 35.6 µM | A498 31.2 µM | SNB-19 > 100 µM | NCI-H226 50.4 µM | 786-0 36.6 µM | SK-MEL-28 > 100 µM | SK-OV-3 22 µM | OVCAR-5 > 100 µM | KM-20L2 > 100 µM | IGROV-1 > 100 µM | XF498 32.1 µM | M14 46.5 µM | NCI-H460 > 100 µM | RXF 631 9.08 µM | COLO 205 > 100 µM | SF-539 38.5 µM | RPMI-8226 > 100 µM | NCI-H23 > 100 µM | SNB-75 23.4 µM | LXFL 529 93.3 µM | ACHN 77.3 µM | HCC 2998 > 100 µM | M19-MEL > 100 µM | HCT-116 > 100 µM | DMS-273 61.8 µM | TK-10 > 100 µM | KM12 > 100 µM | A549 > 100 µM | SW-620 > 100 µM | SF-268 > 100 µM | OVCAR-8 72.8 µM | UACC-62 98.6 µM | HL-60 28.2 µM | K562 > 100 µM | DLD-1 > 100 µM | SNB-78 > 100 µM | SF-295 54.3 µM | U-251 63.8 µM | UACC-257 > 100 µM | OVCAR-3 24.4 µM | UO-31 64.4 µM | LOX IMVI > 100 µM | HOP-18 > 100 µM | OVCAR-4 71.6 µM
